Assay results reported in US10435402B2, “Bicyclic compounds, compositions and medicinal applications thereof” (Advinus Therapeutics Limited, priority 2015, dated 2019).

Target: T1, GAL4-DBD/RORγ-LBD (Homo sapiens, UniProt P51449)
T1 construct: expressed in transfected cells; host or cells: HEK293T
Test: RORγt transactivation reporter assay (GAL4-DBD/RORγ-LBD, luciferase read out)
Assay type: cell-based
Details: HEK293T cells, GAL4-UAS luciferase reporter, overnight (18-24 hours) incubation
Procedure: RORγt Transactivation Reporter Assay Protocol: The inhibition of RORγt activity in cells was evaluated using a GAL4-UAS reporter system in HEK293T cells employing a luciferase read out. RORγt ligand binding domain (LBD) was cloned into the pFN26A (BIND) vector (Promega #[…]) containing yeast GAL4-DBD to form a RORγt LBD-GAL4 DBD fusion construct. This vector also contained a Renilla Luciferase reporter expressed under a SV40 promoter which was used as a control for transfection efficiency. A transcriptional reporter expression construct pGL4.35 (Promega #[…]) was used to monitor RORγt LBD-GAL4 activity. This construct contained nine repeats of GAL4 binding site/upstream activating sequence (UAS) controlling expression of a firefly luciferase reporter Luc2P. When transfected together in cells, the RORγ-LBD-DBD fusion protein drives expression of the luciferase reporter. For the assay, HEK293T cells were plated in a flat bottom 96 well plate at a density of 25,000 cells/well/100 ul of DMEM high glucose medium (Sigma D5648) containing 10% FBS and antibiotic. Cells were incubated overnight at 37 C/5% CO2. The next day, medium from the wells was removed and replaced with 30 ul of OptiMEM® (Invitrogen #31985070). 100 ng each of pBIND RORγ LBD-DBD and pGL4.35 reporter plasmids was transfected in HEK293T cells using Lipofectamine 2000 (Invitrogen #11668-019) where 10 ul of transfection complex was added to the each well. Control transfections were performed with an empty pF[…] vector and pGL4.35 vector. The transfected cells were incubated for 5 hours at 37 C/5% CO2. After incubation, 40 ul of DMEM high glucose medium without FBS, with antibiotic was added to each well. A 10 mM stock solution of test compound prepared in 100% DMSO was first diluted in DMSO and then in DMEM medium without FBS to give the required final compound concentration. Concentration of DMSO in the test compound solution was 0.4%. 20 ul of diluted compound solution was added to each well. Cells were incubated overnight (18-24 hours) at 37 C/5% CO2. The next day, luciferase assay was performed using the Dual Glo® Luciferase Assay System (Promega #E2940). Briefly, medium was removed from the wells and replaced with 40 ul 1× Passive Lysis Buffer (Promega #E1941). Plate was incubated at room temperature on a plate shaker at 1000 rpm for 40 min. After incubation, plate was centrifuged at 1000 rpm for 2 min. 20 ul of the lysate was transferred from each well to that of solid white half area 96 well plate (Costar #3693). Dual Glo® Reagent was thawed to room temperature and 20 ul was added to each well containing lysate. Plate was centrifuged at 1000 rpm/2 min and incubated at room temperature on a plate shaker at 600 rpm/25 min. Firefly luciferase signal was measured on a Tecan Safire2. After measurement, 20 ul of Dual Glo® Stop Glo® Reagent was added to each well. Plate was centrifuged at 1000 rpm/2 min and incubated at room temperature on a plate shaker at 600 rpm/25 min. Renilla luciferase signal was measured on Tecan Safire 2. IC50 values for test compounds were calculated from the normalized luciferase signal data using GraphPad Prism software.

T1 sequence (P51449 269-508 limits assumed): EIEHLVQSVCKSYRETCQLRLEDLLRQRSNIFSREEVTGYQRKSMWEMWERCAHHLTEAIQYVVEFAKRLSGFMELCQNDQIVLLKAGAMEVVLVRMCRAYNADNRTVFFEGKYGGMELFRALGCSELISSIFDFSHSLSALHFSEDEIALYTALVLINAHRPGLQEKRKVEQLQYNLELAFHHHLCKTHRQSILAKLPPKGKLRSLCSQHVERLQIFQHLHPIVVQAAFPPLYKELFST
T1 sequence (P04386 1-147 partner limits assumed): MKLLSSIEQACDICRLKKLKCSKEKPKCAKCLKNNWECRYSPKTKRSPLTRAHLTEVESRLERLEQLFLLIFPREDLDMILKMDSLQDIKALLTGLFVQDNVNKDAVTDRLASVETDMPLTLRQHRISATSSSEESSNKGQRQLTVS

Compound | IC50 [µM]
4-[3-(2,6-dichloro-3-fluoro-benzoyl)indolizin-1-yl]-N,N-dimethyl-benzamide [Example F-2] | > 5
CCOC(=O)c1ccc(-c2cc(C(=O)c3c(Cl)cccc3Cl)n3ccccc23)cc1 [Example A-6, ethyl 4-[3-(2,6-dichlorobenzoyl)indolizin-1-yl]benzoate] | < 0.5
O=C(O)c1ccc(-c2cc(C(=O)c3c(Cl)cccc3C(F)(F)F)n3ccccc23)c(F)c1 [Example A-12, 4-[3-[2-chloro-6-(trifluoromethyl)benzoyl]indolizin-1-yl]-3-fluoro-benzoic acid] | < 0.5
CCOC(=O)c1ccc(-c2cc(C(=O)c3c(Cl)cccc3C3CC3)n3ccccc23)cc1 [Example A-31, ethyl 4-[3-(2-chloro-6-cyclopropyl-benzoyl)indolizin-1-yl]benzoate] | < 0.5
CCOC(=O)c1ccc(-c2cc(C(=O)c3c(Cl)ccc(F)c3Cl)n3ccccc23)cc1 [Example A-56, ethyl 4-[3-(2,6-dichloro-3-fluoro-benzoyl)indolizin-1-yl]benzoate] | < 0.5
COC(=O)c1ccc(-c2cc(C(=O)c3c(F)cccc3F)n3ccccc23)c(F)c1 [Example A-5, methyl 4-[3-(2,6-difluorobenzoyl)indolizin-1-yl]-3-fluoro-benzoate] | < 0.5
O=C(c1c(Cl)ccc(F)c1Cl)c1cc(-c2ccc(C(=O)N3CCOCC3)cc2)c2ccccn12 [Example F-3, [4-[3-(2,6-dichloro-3-fluoro-benzoyl)indolizin-1-yl]phenyl]-morpholino-methanone] | > 5
COC(=O)c1cc(F)c(-c2cc(C(=O)c3c(Cl)cccc3Cl)n3ccccc23)c(F)c1 [Example A-7, methyl 4-[3-(2,6-dichlorobenzoyl)indolizin-1-yl]-3,5-difluoro-benzoate] | < 0.5
O=C(O)c1ccc(-c2cc(C(=O)c3c(Cl)cccc3Cl)n3cc(C(=O)N4CCCCC4)ccc23)cc1 [Example D-4, 4-[3-(2,6-dichlorobenzoyl)-6-(piperidine-1-carbonyl)indolizin-1-yl]benzoic acid] | < 1
O=C(O)c1ccc(-c2c(F)c(C(=O)c3c(Cl)cccc3Cl)n3ccccc23)c(F)c1 [Example B-4, 4-[3-(2,6-dichlorobenzoyl)-2-fluoro-indolizin-1-yl]-3-fluoro-benzoic acid] | < 0.5
4-[3-(2-chloro-6-methyl-benzoyl)-5,6,7,8-tetrahydroindolizin-1-yl]benzoic acid [Example H-5] | < 0.5
O=C(O)c1ccc(-c2cc(C(=O)c3c(F)cccc3F)n3cccc(F)c23)c(F)c1 [Example A-48, 4-[3-(2,6-difluorobenzoyl)-8-fluoro-indolizin-1-yl]-3-fluoro-benzoic acid] | < 0.5
ethyl 4-[3-(2-bromo-6-methyl-benzoyl)indolizin-1-yl]benzoate [Example A-66] | < 0.5
O=C(O)c1ccc(-c2cc(C(=O)c3c(Cl)cccc3C(F)(F)F)n3cccc(Cl)c23)cc1 [Example A-58, 4-[8-chloro-3-[2-chloro-6-(trifluoromethyl)benzoyl]indolizin-1-yl]benzoic acid] | < 0.5
CC(C)(C)OC(=O)N1CC=C(c2cc(C(=O)c3c(Cl)cccc3Cl)n3ccccc23)CC1 [Example A-54, tert-butyl 4-[3-(2,6-dichlorobenzoyl)indolizin-1-yl]-3,6-dihydro-2H-pyridine-1-carboxylate] | > 5
O=C(O)c1ccc(-c2cc(C(=O)c3c(Cl)cccc3Cl)n3ccccc23)cn1 [Example A-10, 5-[3-(2,6-dichlorobenzoyl)indolizin-1-yl]pyridine-2-carboxylic acid] | > 5
O=C(O)c1ccc(-c2cc(C(=O)c3c(Cl)cccc3Br)n3ccccc23)c(F)c1 [Example A-52, 4-[3-(2-bromo-6-chloro-benzoyl)indolizin-1-yl]-3-fluoro-benzoic acid] | < 1

Compound | IC50 [µM]
COC(=O)c1ccc(-c2cc(C(=O)c3c(Cl)cccc3Cl)n3ccccc23)c(F)c1 [Example A-4, methyl 4-[3-(2,6-dichlorobenzoyl)indolizin-1-yl]-3-fluoro-benzoate] | < 0.5
COC(=O)c1ccc(-c2cc(C(=O)c3c(Cl)ccc(F)c3Cl)n3ccccc23)c(F)c1 [Example A-17, methyl 4-[3-(2,6-dichloro-3-fluoro-benzoyl)indolizin-1-yl]-3-fluoro-benzoate] | < 0.5
O=C(O)c1ccc(-c2cc(C(=O)c3c(Cl)ccc(F)c3Cl)n3ccccc23)c(F)c1 [Example A-18, 4-[3-(2,6-dichloro-3-fluoro-benzoyl)indolizin-1-yl]-3-fluoro-benzoic acid] | < 0.5
COC(=O)c1ccc(-c2cc(C(=O)c3c(C)cccc3Cl)n3ccccc23)c(F)c1 [Example A-13, methyl 4-[3-(2-chloro-6-methyl-benzoyl)indolizin-1-yl]-3-fluoro-benzoate] | < 0.5
O=C(O)c1ccc(-c2cc(C(=O)c3c(Cl)cccc3C3CC3)n3ccccc23)c(F)c1 [Example A-29, 4-[3-(2-chloro-6-cyclopropyl-benzoyl)indolizin-1-yl]-3-fluoro-benzoic acid] | < 0.5
Cc1c(-c2ccc(C(=O)O)cc2)c2ccccn2c1C(=O)c1c(Cl)ccnc1Cl [Example C-5, 4-[3-(2,4-dichloropyridine-3-carbonyl)-2-methyl-indolizin-1-yl]benzoic acid] | < 0.5
CCOC(=O)c1ccc(-c2cc(C(=O)c3c(Cl)cccc3C3CC3)n3ccccc23)c(F)c1 [Example A-30, ethyl 4-[3-(2-chloro-6-cyclopropyl-benzoyl)indolizin-1-yl]-3-fluoro-benzoate] | < 0.5
O=C(O)c1ccc(-c2cc(C(=O)c3c(Cl)cccc3Cl)n3cc(C(=O)N4CCOCC4)ccc23)cc1 [Example D-3, 4-[3-(2,6-dichlorobenzoyl)-6-(morpholine-4-carbonyl)indolizin-1-yl]benzoic acid] | < 1
CCOC(=O)c1ccc(-c2cc(C(=O)c3c(F)cccc3F)n3ccccc23)c(F)c1 [Example A-38, ethyl 4-[3-(2,6-difluorobenzoyl)indolizin-1-yl]-3-fluoro-benzoate] | < 0.5
O=C(O)c1ccc(-c2cc(C(=O)c3c(Cl)cccc3Cl)n3cc(C(=O)N4CCCC4)ccc23)cc1 [Example D-5, 4-[3-(2,6-dichlorobenzoyl)-6-(pyrrolidine-1-carbonyl)indolizin-1-yl]benzoic acid] | < 0.5
4-[3-[2-chloro-6-(trifluoromethyl)benzoyl]-6-(pyrrolidine-1-carbonyl)indolizin-1-yl]benzoic acid [Example D-12] | < 0.5
CCOC(=O)c1ccc(-c2cc(C(=O)c3c(Cl)cccc3Cl)n3cccc(C(F)(F)F)c23)cc1 [Example A-62, ethyl 4-[3-(2,6-dichlorobenzoyl)-8-(trifluoromethyl)indolizin-1-yl]benzoate] | < 0.5
O=C(O)c1ccc(-c2cc(C(=O)c3c(Cl)cccc3Br)n3ccccc23)cc1 [Example A-50, 4-[3-(2-bromo-6-chloro-benzoyl)indolizin-1-yl]benzoic acid] | < 5
Cc1cccc(Cl)c1C(=O)c1cc(-c2ccc(C(=O)O)cc2)c2ccccn12 [Example A-16, 4-[3-(2-chloro-6-methyl-benzoyl)indolizin-1-yl]benzoic acid] | < 0.5
CCOC(=O)c1ccc(-c2c(C)c(C(=O)c3c(Cl)cccc3C(F)(F)F)n3ccccc23)cc1 [Example C-9, ethyl 4-[3-[2-chloro-6-(trifluoromethyl)benzoyl]-2-methyl-indolizin-1-yl]benzoate] | < 0.5
O=C(O)c1ccc(-c2cc(C(=O)c3c(Cl)cccc3C(F)(F)F)n3cc(C(=O)N4CCC4)ccc23)cc1 [Example D-11, 4-[6-(azetidine-1-carbonyl)-3-[2-chloro-6-(trifluoromethyl)benzoyl]indolizin-1-yl]benzoic acid] | < 0.5
O=C(c1c(Cl)cccc1C(F)(F)F)c1cc(C2=CCC(C(=O)O)CC2)c2ccccn12 (stereo not shown) [Example A-65, 4-[3-[2-chloro-6-(trifluoromethyl)benzoyl]indolizin-1-yl]cyclohex-3-ene-1-carboxylic acid] | < 0.5
